Data taken from patent publication US8962322B2, “Enhancers of induced pluripotent stem cell reprogramming” (City of Hope, priority 2012, dated 2015).

What was measured:
p53 = test: RT-PCR of p53 expression in treated MEFs; format: cell-based, mouse; conditions: MEFs treated for two days
Description: Inhibition of the p53-p21 signaling increased reprogramming efficiency (26, 28-31, 41). To investigate whether compound OAC1 enhanced reprogramming efficiency by affecting this pathway, MEFs were treated with vehicle control or OAC1 and determined the expression level of p53 and p21 in the treated cells.
RT-PCR analysis: Total RNA was purified with Trizol reagent (Invitrogen). Reverse transcription was performed with 1 μg of RNA using Omniscript® Reverse Transcription Kit (Qiagen). Quantitative PCR was performed using iTaq SYBR Green Supermix with Rox (Bio-rad) in Applied Biosystem Step one plus real-time PCR system. […]

human Nanog promoter = test: Nanog-luc luciferase reporter assay (stably transfected CV1 cells); format: cell-based
[1] = test system: human fibroblast cells (IMR90); test: human iPSC derivation from 4F (OSKM)-transduced IMR90 fibroblasts; format: cell-based
Description: It has been shown that compound OAC1 (Oct4-activating compound I) and two of its structural analogs OAC2 and OAC3 can enhance reprogramming efficiency, when added to the reprogramming mixture along with the four transcription factors, Oct4, Sox2, Klf4, and c-Myc (OSKM), in mouse system. The OAC compounds were tested to determine if they can enhance reprogramming efficiency in human system. The reprogramming process was performed as described in the diagram (FIG. 14a). Briefly, human fibroblast cells (IMR90) were induced to reprogram into induced pluripotent stem cells (iPSCs) using the four reprogramming factors (4F), OSKM. The day when the cells were transduced with the four reprogramming factors was referred to as day 0. Cells were cultured in IMR90 media for six days. On day 6, the transduced cells were split and seeded onto feeders. On day 7, IMR90 culture media was changed to hESC culture media and started compound treatment. Compound treatment was lasted for one week. Cells were monitored for the appearance of human embryonic stem cell (ESC)-like colonies. On day 9, several small human ESC-like colonies appeared in both 4F+OAC1 and 4F+OAC2-treated cells, however, human ESC-like colonies were not observed in 4F+vehicle (4F)-treated cells until day 11. To determine the effect of OAC on the efficiency of human iPSC derivation, the number of human ESC-like colonies were counted under all three conditions at day 18. Both OAC 1 and its structural analog OAC2 increased the number of human ESC-like colonies more than two-fold (FIG. 14b, c). The human ESC-like colonies were picked from either 4F or 4F+OAC-treated cells and expanded under human ESC culture conditions. These cells were able to expand and stably produce human iPSC clones with characteristic human ESC-like morphology (FIG. 14d).

O=C(Nc1cc2cc[nH]c2cn1)c1ccccc1 [OAC1, N-(1H-6-azaindol-5-yl)benzamide]
p53 expression level versus DMSO (p53): no significant difference
activation of Nanog-luc at 50 nM (human Nanog promoter; 50 nM): substantial activation
fold induction at 1 µM (human Nanog promoter; Chlorocebus aethiops, CV-1, compound at 1 μM, Nanog-luc cells, triplicates): 4.5
induction of Nanog-luc, comparison with known reprogramming enhancers (in words) (human Nanog promoter; OAC1 1 μM, BIO 2 μM, BIX 2 μM, AzaC 2 μM, Vc 25 μg/ml, Am580 10 nM, tranylcypromine 5 μM, VPA 0.5 mM, two days): potent induction
activation of human Nanog reporter (in words) (human Nanog promoter; triplicate luciferase reporter assays): considerable activation
day at which human ESC-like colonies appeared ([1]; IMR90, 4F+compound, day 0 = transduction, 4F+vehicle day 11): 9 days
increase in the number of human ESC-like colonies ([1]; IMR90, day 18, versus 4F): more than two
